Test: Clearance of PBD drug-linker from conjugation reaction mixture by tangential flow filtration (constant volume diafiltration)
Settings: Example 8; without cyclodextrin; Tris, NaCl and 50% propylene glycol; clearance stalling after four diavolumes
Procedure: The diafiltration (DF) process used an 88 cm^2 Ultracel Pellicon 3 cassette from Millipore with a 30 kD molecular weight pore size. The batch volume for the DF was 250 mL, the feed flow rate was 40 ml/min throughout the process, and the retentate valve was adjusted to maintain a trans-membrane pressure of ˜20 psi. The diafiltration buffer addition rate to maintain constant batch volume started at 9 mL/min, but was maintained at 13-14 ml/min through most of the process. Samples were removed after the completion of each diavolume. The concentration of hpb-CD was measured in each sample using an RP HPLC assay with evaporative light scattering detection.
This mixture was brought to 10 w/v % hpb-CD by addition of 25% volume of a 50 w/v % solution of hpb-CD in 50 mM Tris/5 mM EDTA, pH 8.0. […] The concentration of quenched drug-linker was determined in each sample. […] C and C0 are concentrations of the analyte measured, N is the number of diavolumes, and S is the sieving factor, defined as the analyte concentration on the permeate side of the membrane divided by the analyte concentration on the retentate side of the membrane. […]
The TFF process was performed on quenched conjugation reaction mixture using a 30 kD MW cutoff 0.1 m^2 Ultracel Pellicon 3 membrane (Millipore). […] The concentration of quenched PBD drug-linker was determined in each sample. […]

SMILES: COc1ccc(C2=CN3C(=O)c4cc(OC)c(OCCCOc5cc6c(cc5OC)C(=O)N5C=C(c7ccc(NC(=O)[C@H](C)NC(=O)[C@@H](NC(=O)CCCCCN8C(=O)CC(SCC(NC(C)=O)C(=O)O)C8=O)C(C)C)cc7)C[C@H]5C=N6)cc4N=C[C@@H]3C2)cc1 (stereo partly shown) [compound 4]
- benzodiazepine drug-related impurity remaining in the mixture: 1.1 µM
